Values after ≈ are worked out from the molar mass of the structure shown.
Tests used:
Type in all cases: functional
[1] = Cytotoxicity against human Hs 742.T cells after 6 days by MTT assay; settings: 144 h, read-out: ED50 (the source's name)
[2] = Cytotoxicity against human LNCaP-FGC cells after 6 days by MTT assay; settings: LNCaP-Clone-FGC, 144 h, read-out: ED50 (the source's name)
DU-145 = assay: Cytotoxicity against human DU145 cells after 6 days by MTT assay; settings: DU-145, 144 h, read-out: ED50 (the source's name)
[3] = Cytotoxicity against human Hs 578T cells after 6 days by MTT assay; settings: 144 h, read-out: ED50 (the source's name)
[4] = Cytotoxicity against human Hs 740.T cells after 6 days by MTT assay; settings: 144 h, read-out: ED50 (the source's name)
[5] = Cytotoxicity against human Hs 746T cells after 6 days by MTT assay; settings: Hs746T, 144 h, read-out: ED50 (the source's name)

Work on `C[C@@H]1O[C@@H](O[C@H]2[C@H](O[C@H]3[C@H](O[C@H]4CC[C@@]5(C)[C@@H](CC[C@]6(C)[C@@H]5CC=C5[C@@H]7CC(C)(C)C[C@@H](O[C@@H]8O[C@H](CO)[C@@H](O)[C@H](O)[C@H]8O[C@@H]8O[C@@H](C)[C@H](O)[C@@H](O)[C@H]8O)[C@]7(C)CC[C@]56C)[C@]4(C)CO)O[C@H](C(=O)O)[C@@H](O)[C@@H]3O)O[C@H](CO)[C@H](O)[C@@H]2O)[C@H](O)[C@H](O)[C@H]1O` yielded an EC50 [1] of 14.6 µg/mL (≈ 11.7 µM), an EC50 [2] of 24.1 µg/mL (≈ 19.3 µM) and an EC50 (DU-145) of 3.25 µg/mL (≈ 2.6 µM). It also gave an EC50 [3] of 2.12 µg/mL (≈ 1.69 µM), an EC50 [4] of 4.1 µg/mL (≈ 3.28 µM) and an EC50 [5] of 3.94 µg/mL (≈ 3.15 µM).

For `COc1ccc(-c2coc3cc(O[C@@H]4O[C@H](COC(C)=O)[C@@H](O)[C@H](O)[C@H]4OC(C)=O)ccc3c2=O)cc1`, the EC50 [1] was 25.5 µg/mL (≈ 49.6 µM), the EC50 [2] was 22.1 µg/mL (≈ 43 µM) and the EC50 (DU-145) was 4.18 µg/mL (≈ 8.12 µM). For the same compound, the EC50 [3] was 5.44 µg/mL (≈ 10.6 µM), the EC50 [4] was 7.61 µg/mL (≈ 14.8 µM) and the EC50 [5] was 8.89 µg/mL (≈ 17.3 µM).

In the case of `C[C@@H]1O[C@@H](O[C@H]2[C@H](O[C@@H]3CC(C)(C)C[C@H]4C5=CC[C@@H]6[C@@]7(C)CC[C@H](O[C@@H]8O[C@H](C(=O)O)[C@@H](O)[C@H](O)[C@H]8O[C@@H]8O[C@H](CO)[C@H](O)[C@H](O)[C@H]8O[C@@H]8O[C@@H](C)[C@H](O)[C@@H](O)[C@H]8O)[C@@](C)(CO)[C@@H]7CC[C@@]6(C)[C@]5(C)CC[C@@]34C)OC[C@H](O)[C@@H]2O)[C@H](O)[C@H](O)[C@H]1O`, the EC50 [1] is reported as 17.5 µg/mL (≈ 14.3 µM), the EC50 [2] is reported as 27.5 µg/mL (≈ 22.5 µM) and the EC50 (DU-145) is reported as 3.12 µg/mL (≈ 2.55 µM). For the same compound, the EC50 [3] was 2.39 µg/mL (≈ 1.96 µM), the EC50 [4] was 3.53 µg/mL (≈ 2.89 µM) and the EC50 [5] was 2.47 µg/mL (≈ 2.02 µM).

`CC1(C)C[C@@H](O)[C@]2(C)CC[C@]3(C)C(=CC[C@@H]4[C@@]5(C)CC[C@H](O[C@@H]6O[C@H](C(=O)O)[C@@H](O)[C@H](O)[C@H]6O)[C@@](C)(CO)[C@@H]5CC[C@]43C)[C@@H]2C1` [3-O-[BETA-D-GLUCURONOPYRANOSYL]SOYASAPOGENOL B] gave an EC50 [1] of 28.7 µg/mL (≈ 45.2 µM), an EC50 [2] of 37.3 µg/mL (≈ 58.7 µM) and an EC50 (DU-145) of 9.13 µg/mL (≈ 14.4 µM). For the same compound, the EC50 [3] was 8.77 µg/mL (≈ 13.8 µM), the EC50 [4] was 9.61 µg/mL (≈ 15.1 µM) and the EC50 [5] was 9.59 µg/mL (≈ 15.1 µM).

Work on `CC1(C)C[C@@H](O)[C@]2(C)CC[C@]3(C)C(=CC[C@@H]4[C@@]5(C)CC[C@H](O[C@@H]6O[C@H](C(=O)O)[C@@H](O)[C@H](O)[C@H]6O[C@@H]6O[C@H](CO)[C@H](O)[C@H](O)[C@H]6O[C@@H]6O[C@H](CO)[C@@H](O)[C@H](O)[C@H]6O)[C@@](C)(CO)[C@@H]5CC[C@]43C)[C@@H]2C1` [3-O-[BETA-DGLUCOPYRANOSYL-(1->2)-BETA-D-GALACTOPYRANOSYL(1->2)-BETA-DGLUCURONOPYRANOSYL]SOYASAPOGENOL B] yielded an EC50 [1] of 31.6 µg/mL (≈ 32.9 µM), an EC50 [2] of 40.7 µg/mL (≈ 42.4 µM) and an EC50 (DU-145) of 5.75 µg/mL (≈ 5.99 µM). It also gave an EC50 [3] of 9.87 µg/mL (≈ 10.3 µM), an EC50 [4] of 8.97 µg/mL (≈ 9.35 µM) and an EC50 [5] of 7.36 µg/mL (≈ 7.67 µM).

Compound `O=C1c2ccc(O[C@@H]3O[C@H](CO)[C@@H](O)[C@H](O)[C@H]3O)cc2OCC1c1ccc(O)cc1` (stereo partly drawn) [DIHYDRODAIDZIN] has an EC50 [1] of 33.6 µg/mL (≈ 80.2 µM), an EC50 [2] of 32.5 µg/mL (≈ 77.6 µM) and an EC50 (DU-145) of 9.16 µg/mL (≈ 21.9 µM). It also gave an EC50 [3] of 28.2 µg/mL (≈ 67.5 µM), an EC50 [4] of 17.4 µg/mL (≈ 41.5 µM) and an EC50 [5] of 14.9 µg/mL (≈ 35.7 µM).

For `O=C1c2c(O)cc(O[C@@H]3O[C@H](CO)[C@@H](O)[C@H](O)[C@H]3O)cc2OCC1c1ccc(O)cc1` (stereo partly drawn) [DIHYDROGENISTIN], the EC50 [1] was 30.8 µg/mL (≈ 70.9 µM), the EC50 [2] was 41.6 µg/mL (≈ 95.7 µM) and the EC50 (DU-145) was 10.2 µg/mL (≈ 23.6 µM). It also gave an EC50 [3] of 15.4 µg/mL (≈ 35.4 µM), an EC50 [4] of 15.1 µg/mL (≈ 34.8 µM) and an EC50 [5] of 12.2 µg/mL (≈ 28.2 µM).

`O=c1c(-c2ccc(O)cc2)coc2cc(O)cc(O)c12` [GENISTEIN] gave an EC50 [1] of 14.9 µg/mL (≈ 55.1 µM), an EC50 [2] of 25.4 µg/mL (≈ 94.2 µM) and an EC50 (DU-145) of 2.39 µg/mL (≈ 8.84 µM). The EC50 [3] was 3.5 µg/mL (≈ 13 µM), the EC50 [4] was 4.38 µg/mL (≈ 16.2 µM) and the EC50 [5] was 5.82 µg/mL (≈ 21.5 µM).
